Measurements as given in the Deep4Chem optical property database.
Where “and” joins values, the source holds several entries; their conditions need not be identical. Identical values can stand only once.

Experiment: solvent given as SMILES
[1] = in O=P(c1ccccc1)(c1ccccc1)c1ccccc1Oc1ccccc1P(=O)(c1ccccc1)c1ccccc1

SMILES: Cc1ccc(C)n1-c1ccc(C#N)cc1
- emission maximum (in C1CCOC1): 501 nm
- emission maximum (in CCCCCC): 406 nm
- emission maximum (in CCCCCl): 480 nm
- emission maximum (in CCOCC): 479 nm
- emission maximum (in ClCCl): 517 nm

SMILES: CN(C)c1ccc2ccc3oc(=O)c(-c4ccccc4)nc3c2c1
- emission maximum (in c1ccccc1): 608 nm

SMILES: c1ccc2c(c1)-c1ccccc1C21c2ccccc2-c2ncccc21
- emission maximum (in CC1CCCO1): 333 nm

SMILES: CCCCN1c2ccccc2Sc2cc(/C=C/c3nc4nc5ccccc5nc4s3)ccc21
- emission maximum (in C1CCCCC1): 558 nm
- emission maximum (in C1CCOC1): 670 nm
- emission maximum (in C1COCCO1): 640 nm
- emission maximum (in CC(C)=O): 739 nm
- emission maximum (in CCOC(C)=O): 670 nm
- emission maximum (in CCOCC): 635 nm
- emission maximum (in Cc1ccccc1): 621 nm
- emission maximum (in ClCCl): 729 nm

SMILES: c1ccc(-c2nc(-c3ccccc3)nc(-c3ccc(-n4c5ccc(-n6c7ccccc7c7ccccc76)cc5c5cc(-n6c7ccccc7c7ccccc76)ccc54)cc3)n2)cc1
- emission maximum (in Cc1ccccc1): 458 nm
- emission maximum [1]: 475 nm and 450.31 nm

SMILES: O=C(O)CCCOc1cccc(-c2c3nc(cc4ccc([nH]4)c(-c4cccc(OCCCC(=O)O)c4)c4nc(cc5ccc2[nH]5)C=C4)C=C3)c1
- emission maximum (in CS(C)=O): 632 nm

SMILES: Cc1cc(C)c(-c2cc(-c3c(C)cc(C)cc3C)c3ccc4c(-c5c(C)cc(C)cc5C)cc(-c5c(C)cc(C)cc5C)c5ccc2c3c54)c(C)c1
- emission maximum (in ClCCl): 411 nm

SMILES: Cc1ccc(C2=[N+]3C(=Nc4c5ccccc5c(-c5ccc(C)s5)n4[B-]3(F)F)c3ccccc32)s1
- emission maximum (in ClCCl): 841 nm

SMILES: C(C1=[NH+]c2cccc3cccc1c23)=c1[nH]c2cccc3cccc1c32
- emission maximum (in CO): 617 nm

SMILES: CCn1c2ccccc2c2c3nsnc3c3c4ccccc4n(CC)c3c21
- emission maximum (in CN(C)C=O): 500 nm
- emission maximum (in Cc1ccccc1): 470 nm
- emission maximum (in ClCCl): 497 nm

SMILES: CCC1=C(C)C2=Cc3cc(I)c(I)n3[B-](F)(F)[N+]2=C1C
- emission maximum (in C1CCCCC1): 550.5 nm
- emission maximum (in CC(C)=O): 552.5 nm
- emission maximum (in CCO): 555 nm
- emission maximum (in CCOC(C)=O): 551.5 nm
- emission maximum (in CO): 552 nm
- emission maximum (in OCC(F)(F)F): 548 nm

SMILES: COc1cnc(-c2cc[n+](C3=C(F)C(F)(F)C(F)(F)[C-]3F)cc2)s1
- emission maximum (in CC#N): 474 nm
- emission maximum (in CC(C)=O): 474 nm
- emission maximum (in CCO): 474 nm
- emission maximum (in CN(C)C=O): 485 nm
- emission maximum (in CO): 472 nm
- emission maximum (in CS(C)=O): 490 nm
- emission maximum (in ClC(Cl)Cl): 462 nm
- emission maximum (in ClCCl): 466 nm

SMILES: O=C1c2ccccc2C2=Nc3ccc4ccccc4[n+]3[B-](F)(F)N12
- emission maximum (in ClCCl): 444 nm

SMILES: CC(C)(C)c1cc2ccc3cc(C(C)(C)C)cc4c(N(c5ccccc5)c5ccccc5)cc(c1)c2c34
- emission maximum (in C1CCOC1): 455.01 nm
- emission maximum (in CC#N): 483.88 nm
- emission maximum (in CCCCCC): 415 nm

SMILES: Cc1ccc2c(c1)B(c1c(C(C)C)cc(C(C)C)cc1C(C)C)c1cc(C)cc3c1N2c1ccc(C)cc1B3c1c(C(C)C)cc(C(C)C)cc1C(C)C
- emission maximum (in ClCCl): 482 nm

SMILES: C[C@]12SC(=O)C=C1c1nc(-c3ccc(Cl)cc3)[nH]c1C1=CC(=O)S[C@@]12C
- emission maximum (in CC#N): 509 nm

SMILES: c1ccc(-c2nc(-c3ccccc3)nc(-c3ccc(-n4c5ccccc5c5c4c4ccccc4n5-c4ccccc4)cc3)n2)cc1
- emission maximum (in Cc1ccccc1): 526 nm

SMILES: C(=C\c1ccc(N(c2ccccc2)c2ccccc2)cc1)/c1ccc(-c2cc(-c3ccccn3)nc(-c3ccccn3)c2)cc1
- emission maximum (in C1CCOC1): 502 nm
- emission maximum (in C1COCCO1): 466 nm
- emission maximum (in CC#N): 560 nm
- emission maximum (in CCO): 556 nm
- emission maximum (in ClCCl): 519 nm

SMILES: O=C1c2ccc3c4ccc5c6c(ccc(c7ccc(c2c37)C(=O)N1c1ccc(Cl)cc1)c64)C(=O)N(c1ccc(Cl)cc1)C5=O
- emission maximum (in CN(C)C=O): 534 nm

SMILES: O=c1cc2c(-c3c(O)c4cccc5ccc6oc(=O)cc3c6c54)c(O)c3cccc4ccc(o1)c2c43
- emission maximum (in CC1CCCO1): 552 nm

SMILES: CCCC1=Cc2nc1ccc1[nH]c(cc1CCC)c1nc(c(OCc3ccc(C(=O)O)cc3)cc3[nH]c2cc3CCC)C(CCC)=C1
- emission maximum (in Cc1ccccc1): 685 nm

SMILES: CN(C)c1ccc(C#Cc2ccc(-c3nc(C#N)c(C#N)n3C)cc2)cc1
- emission maximum (in C1CCCCC1): 406 nm
- emission maximum (in CC#N): 514 nm
- emission maximum (in CO): 489 nm
- emission maximum (in ClC(Cl)Cl): 479 nm

SMILES: F[B-]1(F)OC(c2ccc(Br)cc2)=Cc2c3ccccc3c3ccccc3[n+]21
- emission maximum (in ClC(Cl)Cl): 449 nm

SMILES: C(=C\c1c[nH]c2ccc(Oc3ccccc3)cc12)/C1=[NH+]c2cccc3cccc1c23
- emission maximum (in CO): 584 nm

SMILES: CC(C)c1cc(C(C)C)c(-c2nnc(-c3ccc(-n4c5ccccc5c5ccccc54)cc3)o2)c(C(C)C)c1
- emission maximum (in CCO): 435 nm
- emission maximum (in Cc1ccccc1): 377 nm

SMILES: O=P(c1ccccc1)(c1ccccc1)n1c2ccccc2c2cc(-n3c4ccccc4c4cc(-n5c6ccccc6c6ccccc65)ccc43)ccc21
- emission maximum (in C1CCOC1): 373 nm
- emission maximum (in CC(C)=O): 374 nm
- emission maximum (in Cc1ccccc1): 373 nm
- emission maximum (in ClCCl): 381 nm

SMILES: O=C1c2ccc3c4c(-c5ccccc5)cc5c6c(ccc(c7c(-c8ccccc8)cc(c2c37)C(=O)N1C1CCCCC1)c64)C(=O)N(C1CCCCC1)C5=O
- emission maximum (in ClC(Cl)Cl): 651 nm

SMILES: CN1/C(=C/C=C(/C=C/C2=[N+](C)c3ccccc3C2(C)C)c2cc(F)cc(F)c2)C(C)(C)c2ccccc21
- emission maximum (in CCO): 661 nm
- emission maximum (in CO): 655 nm
- emission maximum (in CS(C)=O): 663 nm
- emission maximum (in O): 659 nm

SMILES: Cc1cc(-n2c3ccccc3c3cc4c(cc32)C2c3ccccc3C4c3ccccc32)ccc1-c1nc(-c2ccccc2)nc(-c2ccccc2)n1
- emission maximum (in Cc1ccccc1): 429 nm
- emission maximum [1]: 444 nm

SMILES: O=C(c1ccc(-n2c3ccccc3c3cc(-n4c5ccccc5c5ccccc54)ccc32)cc1)c1ccc(-n2c3ccccc3c3cc(-n4c5ccccc5c5ccccc54)ccc32)cn1
- emission maximum (in Cc1ccccc1): 462 nm
- emission maximum [1]: 475 nm

SMILES: Cc1ccc(C(=O)/C=C/c2ccc(N(C)C)cc2)cc1
- emission maximum (in C1CCOC1): 503 nm
- emission maximum (in CC#N): 529 nm
- emission maximum (in CC(=O)O): 512 nm
- emission maximum (in CC(C)=O): 516 nm
- emission maximum (in CCO): 533 nm
- emission maximum (in CN(C)C=O): 528 nm
- emission maximum (in CO): 533 nm
- emission maximum (in Cc1ccccc1): 477 nm
- emission maximum (in ClC(Cl)Cl): 508 nm
- emission maximum (in c1ccccc1): 473 nm

SMILES: N#Cc1cnc(-c2c3ccccc3c(-c3ncc(C#N)cn3)c3ccccc23)nc1
- emission maximum (in CCO): 503 nm
- emission maximum (in ClCCl): 500 nm

SMILES: CC1=[N+]2C(=C(c3ccccc3)c3c4c(c(C)n3[B-]2(F)F)CCc2ccccc2-4)C2=C1CCc1ccccc12
- emission maximum (in CC#N): 612 nm

SMILES: CC(=O)OC[C@H]1O[C@@H](OCC#Cc2ccc(C3=C4C(C)=CC(/C=C/c5ccc([N+](C)(C)C)cc5)=[N+]4[B-](F)(F)n4c(/C=C/c5ccc([N+](C)(C)C)cc5)cc(C)c43)cc2)[C@H](OC(C)=O)C(OC(C)=O)[C@@H]1OC(C)=O (some centres not stated)
- emission maximum (in CC#N): 629 nm

SMILES: COc1ccc(/C=C/C2=[O+][B-](F)(F)OC(/C=C/c3ccc(OC)cc3)=C2c2ccccc2)cc1
- emission maximum (in CC#N): 564 nm
- emission maximum (in CC(C)=O): 549 nm
- emission maximum (in CCOC(C)=O): 534 nm
- emission maximum (in CCOCC): 520 nm
- emission maximum (in ClC(Cl)(Cl)Cl): 515 nm
- emission maximum (in ClCCl): 554 nm

SMILES: C1=C(c2ccccc2)S[C@]23C1=C(c1ccccc1)[C@H](c1ccccc12)c1ccccc13
- emission maximum (in ClCCl): 491 nm

SMILES: N#Cc1ccc(C=C2Oc3cccc(O)c3C2=O)cc1
- emission maximum (in CC#N): 510 nm

SMILES: C/C(=C\c1ccc(C)cc1)c1nc2ccccc2s1
- emission maximum (in C1CCCCC1): 390 nm
- emission maximum (in CO): 400 nm

SMILES: COC(=O)C1CCN(c2ccc3c(N4CCCCC4)c4ccc(=[N+]5CCC(C(=O)OC)CC5)cc-4oc3c2)CC1 (configuration not stated)
- emission maximum (in ClCCl): 552 nm

SMILES: CN1/C(=C/C=C(/C=C/c2sc3ccccc3[n+]2C)c2cccc(C(F)(F)F)c2)Sc2ccccc21
- emission maximum (in CCO): 665 nm
- emission maximum (in CO): 661 nm
- emission maximum (in CS(C)=O): 665 nm
- emission maximum (in O): 659 nm

SMILES: COc1cc(OC)cc(C2=[O+][B-](F)(F)OC(c3cccs3)=C2)c1
- emission maximum (in CCCCCC): 434.88 nm
- emission maximum (in Cc1ccccc1): 502.25 nm
- emission maximum (in ClCCl): 567 nm

SMILES: c1cc2ccc3ccc4cc3c2cc1c1ccc2ccc3ccc(cc3c2c1)c1ccc2ccc3ccc4cc3c2c1
- emission maximum (in Cc1ccccc1): 419 nm

SMILES: CC1=C(C(C)(C)C)C(C)=[N+]2C1=C(C)c1c(C)c(C(C)(C)C)c(C)n1[B-]2(F)F
- emission maximum (in C1CCCCC1): 571.2 nm
- emission maximum (in C1CCOC1): 566.6 nm
- emission maximum (in C1COCCO1): 565.4 nm
- emission maximum (in CC#N): 560.6 nm
- emission maximum (in CC(C)=O): 563.6 nm
- emission maximum (in CC(C)CC(C)(C)C): 569 nm
- emission maximum (in CCC(C)C): 569 nm
- emission maximum (in CCCC(C)=O): 562.6 nm
- emission maximum (in CCCCCC): 567.8 nm
- emission maximum (in CCCCCCCCO): 565 nm
- emission maximum (in CCCCCCO): 565.4 nm
- emission maximum (in CCCCO): 566.6 nm
- emission maximum (in CCCCOC(C)=O): 564.6 nm
- emission maximum (in CCCO): 564.6 nm
- emission maximum (in CCO): 563.2 nm
- emission maximum (in CCOC(C)=O): 562.4 nm
- emission maximum (in CCOCC): 565.4 nm
- emission maximum (in CN(C)C=O): 565.4 nm
- emission maximum (in CNC=O): 560.6 nm
- emission maximum (in CO): 561.2 nm
- emission maximum (in COC(C)=O): 561.8 nm
- emission maximum (in OCC(F)(F)F): 561.2 nm

SMILES: CCCCCCC1(CCCCCC)c2ccccc2-c2ccc(-c3ccc(-c4cc(-c5ccccn5)nc(-c5ccccn5)c4)cc3)cc21
- emission maximum (in ClCCl): 409 nm

SMILES: COc1cc(/C=C/c2nc(N3CCOCC3)c3c([n+]2[O-])CCCC3)cc(OC)c1OC
- emission maximum (in ClCCl): 521 nm

SMILES: CC(C)(C)c1cccc2c([O-])cccc12
- emission maximum (in O): 443 nm

SMILES: O=[N+]([O-])c1ccc(-n2c3ccccc3c3c2c2ccccc2n3-c2ccccc2)cc1
- emission maximum (in Cc1ccccc1): 660 nm

SMILES: C(#Cc1nc(C#Cc2cccs2)c(C#Cc2cccs2)c(C#Cc2cccs2)c1C#Cc1cccs1)c1cccs1
- emission maximum (in ClCCl): 441 nm

SMILES: N#C/C(=C\c1ccccc1)c1nc2ccccc2s1
- emission maximum (in C1CCCCC1): 430 nm

SMILES: O=Cc1ccc(C#CC(C#Cc2ccc(C=O)s2)=Cc2ccc(C=C(C#Cc3ccc(C=O)s3)C#Cc3ccc(C=O)s3)s2)s1
- emission maximum (in ClC(Cl)Cl): 595 nm

SMILES: C/C=C/C=C/C1=NC(=C\c2ccc([O-])cc2)/C(=O)N1C
- emission maximum (in O): 565 nm
